Laboratory results published in US11384055B2 (BIOMARIN PHARMACEUTICAL INC., priority 2017, dated 2022).

These compounds were tested against T1, Human GO (Homo sapiens, UniProt Q9UJM8) (assay: GO enzymatic assay (coupled fluorescence/HRP assay, glycolate substrate)). Conditions: not given.
T1 construct: purchased Novus Biologicals NBP1-72412
T1 sequence (Q9UJM8 1-370): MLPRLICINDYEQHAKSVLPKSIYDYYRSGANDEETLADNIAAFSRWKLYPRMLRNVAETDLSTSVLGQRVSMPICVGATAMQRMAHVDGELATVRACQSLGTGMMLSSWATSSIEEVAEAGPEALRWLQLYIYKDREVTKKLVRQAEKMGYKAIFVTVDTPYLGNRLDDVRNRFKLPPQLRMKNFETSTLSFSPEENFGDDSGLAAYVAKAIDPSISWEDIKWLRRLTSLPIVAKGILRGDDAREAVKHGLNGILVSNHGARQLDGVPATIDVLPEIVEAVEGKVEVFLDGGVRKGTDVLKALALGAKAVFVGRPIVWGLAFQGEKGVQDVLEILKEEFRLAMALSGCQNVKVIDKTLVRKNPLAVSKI
Format: biochemical
In short: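 Coupled HRP/fluorescence read-out of glycolate oxidation by human GO in 50 mM potassium phosphate buffer (pH 7). Inhibitors added across a concentration range.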

IC50 [nM]	SMILES
< 100	CS(=O)(=O)c1ccc(-c2ccc(Oc3[nH]nnc3C(=O)O)cc2)cc1 [Compound 401, 4-((4′-(methylsulfonyl)-[1,1′-biphenyl]-4-yl)oxy)-1H-1,2,3-triazole-5-carboxylic acid 2,2,2-trifluoroacetate]

Same assay, conditions: Table 4; read-out: Range (range of IC50 values calculated from the enzymatic assays)

SMILES	IC50 [nM]
O=C(O)c1[nH]nnc1Oc1ccc(F)c(OCc2ccc(OC(F)(F)F)cc2)c1 [Compound 400, 4-(4-fluoro-3-((4-(trifluoromethoxy)benzyl)oxy)phenoxy)-1H-1,2,3-triazole-5-carboxylic acid 2,2,2-trifluoroacetate]	< 100
O=C(O)c1[nH]nnc1Oc1ccc(-c2ccc(N3CCCCC3)cc2Cl)cc1 [Compound 407, 4-((2′-chloro-4′-(piperidin-1-yl)-[1,1′-biphenyl]-4-yl)oxy)-1H-1,2,3-triazole-5-carboxylic acid]	< 100
NS(=O)(=O)c1ccc(-c2ccc(Oc3nn[nH]c3C(=O)O)cc2)cc1 [Compound 413, 4-((4′-sulfamoyl-[1,1′-biphenyl]-4-yl)oxy)-1H-1,2,3-triazole-5-carboxylic acid]	< 100
O=C(O)c1[nH]nnc1Oc1ccc(Cl)c(OCc2ccc(C(F)(F)F)cc2)c1 [Compound 415, 4-(4-chloro-3-((4-(trifluoromethyl)benzyl)oxy)phenoxy)-1H-1,2,3-triazole-5-carboxylic acid]	< 100
N#Cc1ccc(Oc2nn[nH]c2C(=O)O)cc1OCc1ccc(OC(F)(F)F)cc1 [Compound 421, 4-(4-cyano-3-((4-(trifluoromethoxy)benzyl)oxy)phenoxy)-1H-1,2,3-triazole-5-carboxylic acid]	< 100
O=C(O)c1[nH]nnc1O[C@H]1C[C@@H]2CN(c3ccc(Cl)c(Cl)c3)C[C@@H]2C1 [Compound 427, 4-(((3aR,5s,6aS)-2-(3,4-dichlorophenyl)octahydrocyclopenta[c]pyrrol-5-yl)oxy)-1H-1,2,3-triazole-5-carboxylic acid]	< 100
O=C(O)c1[nH]nnc1CSC1CCC2(CCCC2)CC1 [Compound 435, 4-((spiro[4.5]decan-8-ylthio)methyl)-1H-1,2,3-triazole-5-carboxylic acid]	< 100
COC1(c2ccc(OC(F)(F)F)cc2)CC(Oc2nn[nH]c2C(=O)O)C1 (stereo not shown) [Compound 440, 4-(3-methoxy-3-(4-(trifluoromethoxy)phenyl)cyclobutoxy)-1H-1,2,3-triazole-5-carboxylic acid]	100 to 1000
O=C(O)c1[nH]nnc1O[C@H]1CC[C@H](c2ccc(OC3CC3)cc2)CC1 [Example 446, 4-(((trans)-4-(4-cyclopropoxyphenyl)cyclohexyl)oxy)-1H-1,2,3-triazole-5-carboxylic acid]	< 100
O=C(O)c1[nH]nnc1O[C@H]1CC[C@H](c2ccc(F)cc2)CC1 [Example 447, 4-(((trans)-4-(4-fluorophenyl)cyclohexyl)oxy)-1H-1,2,3-triazole-5-carboxylic acid]	< 100
O=C(O)c1[nH]nnc1Oc1ccc(Cl)c(OC2CCC2)c1 [Example 448, 4-(4-chloro-3-cyclobutoxyphenoxy)-1H-1,2,3-triazole-5-carboxylic acid]	< 100
O=C(O)c1[nH]nnc1OC1CC(c2ccc(OC(F)(F)F)cc2)C1 (stereo not shown) [Example 449, 4-(3-(4-(trifluoromethoxy)phenyl)cyclobutoxy)-1H-1,2,3-triazole-5-carboxylic acid]	< 100
O=C(O)c1[nH]nnc1Oc1ccc(-c2ccc(-n3cccn3)cc2)cc1 [Example 450, 4-((4′-(1H-pyrazol-1-yl)-[1,1′-biphenyl]-4-yl)oxy)-1H-1,2,3-triazole-5-carboxylic acid 2,2,2-trifluoroacetate]	< 100
NS(=O)(=O)c1ccc([C@H]2CC[C@H](Oc3nn[nH]c3C(=O)O)CC2)cc1 [Example 457, 4-(((trans)-4-(4-sulfamoylphenyl)cyclohexyl)oxy)-1H-1,2,3-triazole-5-carboxylic acid]	< 100
O=C(O)c1[nH]nnc1O[C@H]1CC[C@H](c2ccc(OCC3CCCCC3)cc2)CC1 [Example 460, 4-(((trans)-4-(4-(cyclohexylmethoxy)phenyl)cyclohexyl)oxy)-1H-1,2,3-triazole-5-carboxylic acid]	< 100

More lines, now with the values ahead:

IC50 [nM]	SMILES
< 100	O=C(O)c1[nH]nnc1O[C@H]1CC[C@H](c2cc(Cl)ccc2OC(F)(F)F)CC1 [Compound 393, 4-(((trans)-4-(5-chloro-2-(trifluoromethoxy)phenyl)cyclohexyl)oxy)-1H-1,2,3-triazole-5-carboxylic acid]
< 100	O=C(O)c1[nH]nnc1SC1CCN(c2cc(OC(F)(F)F)ccc2Cl)CC1 [Compound 402, 4-((1-(2-chloro-5-(trifluoromethoxy)phenyl)piperidin-4-yl)thio)-1H-1,2,3-triazole-5-carboxylic acid]
< 100	O=C(O)c1[nH]nnc1Oc1ccc(-c2ccc(N3CCCCC3)cc2)c(Cl)c1 [Compound 406, 4-((2-chloro-4′-(piperidin-1-yl)-[1,1′-biphenyl]-4-yl)oxy)-1H-1,2,3-triazole-5-carboxylic acid 2,2,2-trifluoroacetate]
< 100	O=C(O)c1[nH]nnc1Oc1ccc(Cl)c(OCc2ccc(OC(F)(F)F)cc2)c1 [Compound 408, 4-(4-chloro-3-((4-(trifluoromethoxy)benzyl)oxy)phenoxy)-1H-1,2,3-triazole-5-carboxylic acid]
< 100	O=C(O)c1[nH]nnc1S[C@H]1C[C@@H]2CN(c3ccc(Cl)c(Cl)c3)C[C@@H]2C1 [Compound 428, 4-(((3aR,5s,6aS)-2-(3,4-dichlorophenyl)octahydrocyclopenta[c]pyrrol-5-yl)thio)-1H-1,2,3-triazole-5-carboxylic acid]
< 100	O=C(O)c1[nH]nnc1OC1CCN(c2cc(OC(F)(F)F)ccc2Cl)CC1 [Compound 429, 4-((1-(2-chloro-5-(trifluoromethoxy)phenyl)piperidin-4-yl)oxy)-1H-1,2,3-triazole-5-carboxylic acid]
< 100	N#CC1(c2ccc(OC(F)(F)F)cc2)CCC(Oc2nn[nH]c2C(=O)O)CC1 (stereo not shown) [Compound 437, 4-((4-cyano-4-(4-(trifluoromethoxy)phenyl)cyclohexyl)oxy)-1H-1,2,3-triazole-5-carboxylic acid]
< 100	O=C(O)c1[nH]nnc1S[C@H]1CC[C@@H](c2ccc(N3CCCCC3)c(Cl)c2)CC1 [Compound 442-1, 4-(((cis)-4-(3-chloro-4-(piperidin-1-yl)phenyl)cyclohexyl)thio)-1H-1,2,3-triazole-5-carboxylic acid 2,2,2-trifluoroacetate]
< 100	O=C(O)c1[nH]nnc1S[C@H]1CC[C@H](c2ccc(N3CCCCC3)c(Cl)c2)CC1 [Compound 442-2, 4-(((trans)-4-(3-chloro-4-(piperidin-1-yl)phenyl)cyclohexyl)thio)-1H-1,2,3-triazole-5-carboxylic acid 2,2,2-trifluoroacetate]
< 100	C[C@]1(c2ccc(OC(F)(F)F)cc2)CC[C@H](Oc2nn[nH]c2C(=O)O)CC1 [Compound 443, 4-(((1r,4r)-4-methyl-4-(4-(trifluoromethoxy)phenyl)cyclohexyl)oxy)-1H-1,2,3-triazole-5-carboxylic acid]
< 100	C[C@]1(c2ccc(OC(F)(F)F)cc2)CC[C@@H](Oc2nn[nH]c2C(=O)O)CC1 [Compound 444, 4-(((1s,4s)-4-methyl-4-(4-(trifluoromethoxy)phenyl)cyclohexyl)oxy)-1H-1,2,3-triazole-5-carboxylic acid]
< 100	O=C(O)c1[nH]nnc1N[C@H]1CC[C@H](c2ccc(OC(F)(F)F)cc2)CC1 [Example 451, 4-(((trans)-4-(4-(trifluoromethoxy)phenyl)cyclohexyl)amino)-1H-1,2,3-triazole-5-carboxylic acid]
< 100	O=C(O)c1[nH]nnc1N[C@H]1CC[C@@H](c2ccc(OC(F)(F)F)cc2)CC1 [Example 452, 4-(((cis)-4-(4-(trifluoromethoxy)phenyl)cyclohexyl)amino)-1H-1,2,3-triazole-5-carboxylic acid]
100 to 1000	O=C(O)c1[nH]nnc1OC1CCC(O)(c2ccc(OC(F)(F)F)cc2)CC1 (stereo not shown) [Example 453, 4-((4-hydroxy-4-(4-(trifluoromethoxy)phenyl)cyclohexyl)oxy)-1H-1,2,3-triazole-5-carboxylic acid]
< 100	O=C(O)c1[nH]nnc1OC1CC=C(c2ccc(OC(F)(F)F)cc2)CC1 (stereo not shown) [Example 454, 4-((4′-(trifluoromethoxy)-2,3,4,5-tetrahydro-[1,1′-biphenyl]-4-yl)oxy)-1H-1,2,3-triazole-5-carboxylic acid]
< 100	O=C(O)c1[nH]nnc1OC1C[C@@H]2CC(c3ccc(OC(F)(F)F)cc3)C[C@@H]2C1 (stereo partly drawn) [Example 455, 4-(((cis-3a,6a)-5-(4-(trifluoromethoxy)phenyl)octahydropentalen-2-yl)oxy)-1H-1,2,3-triazole-5-carboxylic acid]
100 to 1000	O=C(O)c1[nH]nnc1CO[C@H]1CC[C@H](c2ccc(OC(F)(F)F)cc2)CC1 [Example 456, 4-((((trans)-4-(4-(trifluoromethoxy)phenyl)cyclohexyl)oxy)methyl)-1H-1,2,3-triazole-5-carboxylic acid]
< 100	O=C(O)c1[nH]nnc1S[C@H]1CC[C@H](c2ccc(-n3cccn3)cc2)CC1 [Example 459, 4-(((trans)-4-(4-(1H-pyrazol-1-yl)phenyl)cyclohexyl)thio)-1H-1,2,3-triazole-5-carboxylic acid 2,2,2-trifluoroacetate]
